# Measured values taken from US20110082130A1 (LIGAND PHARMACEUTICALS, INC., priority 2006, published 2011).
# pKi: −log10 of the molar value.
# Target: T1, chimeric human H3 receptor (Homo sapiens, UniProt Q9Y5N1)
# T1 construct: made in house; host or cells: Sf9 insect cells (baculovirus); P2 membrane preparation
# Assay: Chimeric human H3 receptor GTP binding assay (agonist-stimulated GTP-gamma35S binding, Example 7)
# Type: biochemical
# Conditions: Table I; P2 membranes of Sf9 cells, 1 μM histamine as agonist, Ki from IC50 by Cheng-Prusoff
# Outline: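 Sf9 membranes co-expressing chimeric human H3 receptor and heterotrimeric G-protein, 35 μg/tube, in pH 7.4 Tris buffer with 10 μM GDP. Test compounds (10^−10–10^−6 M) competed against 1 μM histamine, […] GTP-gamma35S, 60 min at room temperature. Filter-bound radioactivity counted; IC50 converted to Ki by Cheng-Prusoff. Agonism/inverse agonism tested without histamine (EC50).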
# T1 sequence (Q9Y5N1 with tags, fused parts or gaps): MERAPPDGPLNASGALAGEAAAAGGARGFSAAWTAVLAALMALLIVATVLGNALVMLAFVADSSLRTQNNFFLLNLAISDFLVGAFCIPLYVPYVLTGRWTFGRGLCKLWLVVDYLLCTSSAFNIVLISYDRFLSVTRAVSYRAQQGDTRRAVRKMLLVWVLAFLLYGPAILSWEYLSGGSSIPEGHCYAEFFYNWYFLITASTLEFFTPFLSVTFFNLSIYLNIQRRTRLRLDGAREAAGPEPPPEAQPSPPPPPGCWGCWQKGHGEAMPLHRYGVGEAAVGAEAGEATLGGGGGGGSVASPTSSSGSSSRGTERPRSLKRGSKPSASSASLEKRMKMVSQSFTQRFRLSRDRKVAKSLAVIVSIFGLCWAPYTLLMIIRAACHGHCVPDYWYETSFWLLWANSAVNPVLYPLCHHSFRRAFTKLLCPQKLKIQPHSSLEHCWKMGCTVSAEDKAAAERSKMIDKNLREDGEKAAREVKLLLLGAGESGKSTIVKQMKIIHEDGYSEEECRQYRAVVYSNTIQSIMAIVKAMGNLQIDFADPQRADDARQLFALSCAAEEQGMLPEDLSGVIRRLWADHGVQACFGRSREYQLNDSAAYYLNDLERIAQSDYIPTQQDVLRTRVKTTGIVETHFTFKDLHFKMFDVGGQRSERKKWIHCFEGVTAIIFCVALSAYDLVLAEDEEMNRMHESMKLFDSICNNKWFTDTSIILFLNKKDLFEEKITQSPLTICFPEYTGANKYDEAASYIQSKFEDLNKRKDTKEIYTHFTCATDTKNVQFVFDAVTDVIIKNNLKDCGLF
row,Structure (SMILES),pKi
1,"CC(C)N1CCN(C(=O)CN2CCc3ccccc3C2Cc2ccccc2)CC1 (stereo not drawn) [Compound 55, 1-benzyl-2-[2-(4-isopropylpiperazin-1-yl)-2-oxoethyl]-1,2,3,4-tetrahydroisoquinoline]",> 6.00
2,"CC(=O)c1ccc2c(c1)CCN(CC(=O)N1CCN(C3CCC3)CC1)C2 [Compound 61, 1-{2-[2-(4-cyclobutylpiperazin-1-yl)-2-oxoethyl]-1,2,3,4-tetrahydroisoquinolin-6-yl}ethanone]",> 6.00

# Same assay, conditions: Table II "Ki", symbol *; assay of Example 7
row,Structure (SMILES),pKi
1,"C[C@H]1CN(C(=O)CN2CCc3cc(-c4cncnc4)ccc3C2)CCN1C1C[C@H]2CC[C@@H]1C2 (stereo partly drawn) [Compound 624, 2-(2-{(3S)-4-[(1R,4S)-bicyclo[2.2.1]hept-2-yl]-3-methylpiperazin-1-yl}-2-oxoethyl)-6-pyrimidin-5-yl-1,2,3,4-tetrahydroisoquinoline]",> 6.00
2,"Cc1ccnc(-c2ccc3c(c2)CCN(CC(=O)N2CCN(C4CCC4)CC2)C3)c1 [Compound 630, 2-[2-(4-cyclobutylpiperazin-1-yl)-2-oxoethyl]-6-(4-methylpyridin-2-yl)-1,2,3,4-tetrahydroisoquinoline]",> 6.00
3,"CN(C)c1cccc(-c2ccc3c(c2)CCN(CC(=O)N2CCN(C4CCC4)CC2)C3)c1 [Compound 536, 3-{2-[2-(4-cyclobutylpiperazin-1-yl)-2-oxoethyl]-1,2,3,4-tetrahydroisoquinolin-6-yl}-N,N-dimethylaniline]",> 6.00
4,"COc1ccc(-c2ccc3c(c2)CCN(CC(=O)N2CCN(C4CCC4)CC2)C3)cc1F [Compound 502, 2-[2-(4-cyclobutylpiperazin-1-yl)-2-oxoethyl]-6-(3-fluoro-4-methoxyphenyl)-1,2,3,4-tetrahydroisoquinoline]",> 6.00

# Same assay, conditions: Table II; "*" = Ki in assay of Example 7 less than 1 micromolar
row,Structure (SMILES),pKi
1,"O=C(CN1CCc2ccc(-c3cncnc3)cc2CC1)N1CCN(C2CCC2)CC1 [Compound 104, 3-[2-(4-cyclobutylpiperazin-1-yl)-2-oxoethyl]-7-pyrimidin-5-yl-2,3,4,5-tetrahydro-1H-3-benzazepine]",> 6.00
2,"CC(C)Oc1ccc2c(c1)CCN(CC(=O)N1CCN(C3CCC3)CC1)C2 [Compound 197, 2-[2-(4-cyclobutylpiperazin-1-yl)-2-oxoethyl]-6-isopropoxy-1,2,3,4-tetrahydroisoquinoline]",> 6.00
3,"Cn1cc(-n2ncc3c2CCN(CC(=O)N2CCN(C4CCC4)CC2)C3)ccc1=O [Compound 263, 5-{5-[2-(4-cyclobutylpiperazin-1-yl)-2-oxoethyl]-4,5,6,7-tetrahydro-1H-pyrazolo[4,3-c]pyridin-1-yl}-1-methytpyridin-2(1H)-one]",> 6.00
4,"C[C@@H](O)c1ccc2c(c1)CCN(CC(=O)N1CCN(C3CCC3)CC1)C2 (stereo in doubt) [Compound 253, 1-{2-[2-(4-cyclobutylpiperazin-1-yl)-2-oxoethyl]-1,2,3,4-tetrahydroisoquinolin-6-yl}ethanol]",> 6.00
5,"CC1CN(C(=O)CN2CCc3nc(C(=O)NC4CCC4)ccc3C2)CCN1C1CCC1 (stereo not drawn) [Compound 126, N-cyclobutyl-6-[2-(4-cyclobutyl-3-methylpiperazin-1-yl)-2-oxoethyl)-5,6,7,8-tetrahydro-1,6-naphthyridine-2-carboxamide]",> 6.00
6,"O=C(CN1CCc2cc(-c3ncccn3)ccc2C1)N1CCN(C2CCC2)CC1 [Compound 131, 2-[2-(4-cyclobutylpiperazin-1-yl)-2-oxoethyl]-6-pyrimidin-2-yl-1,2,3,4-tetrahydroisoquinoline]",> 6.00
7,"CC1CCC[C@H]2CN(C(=O)CN3CCc4cc(-n5ccc(C(F)(F)F)n5)ccc4C3)CCN12 (stereo in doubt) [Compound 158, 6-methyl-2-({6-[3-(trifluoromethyl)-1H-pyrazol-1-yl]-3,4-dihydroisoquinolin-2(1H)-yl}acetyl)octahydro-2H-pyrido[1,2-a]pyrazine]",> 6.00
8,"O=C(CN1CCc2cc(-n3ccc(C(F)(F)F)n3)ccc2C1)N1CCN(C2CCC2)CC1 [Compound 157, 2-[2-(4-cyclobutylpiperazin-1-yl)-2-oxoethyl]-6-[3-(trifluoromethyl)-1H-pyrazol-1-yl]-1,2,3,4-tetrahydroisoquinoline]",> 6.00
9,"O=C(CN1CCc2cc(-n3ccnn3)ccc2C1)N1CCN(C2CCC2)CC1 [Compound 208, 2-[2-(4-cyclobutylpiperazin-1-yl)-2-oxoethyl]-6-(1H-1,2,3-triazol-1-yl)-1,2,3,4-tetrahydroisoquinoline]",> 6.00
10,"CS(=O)(=O)c1cccc(-c2nc3c(s2)CN(CC(=O)N2CCN(C4CCC4)CC2)CC3)c1 [Compound 99, 5-[2-(4-cyclobutylpiperazin-1-yl)-2-oxoethyl]-2-[3-(methylsulfonyl)phenyl]-4,5,6,7-tetrahydro[1,3]thiazolo [5,4-c]pyridine]",> 6.00
11,"CC1CCC[C@H]2CN(C(=O)CN3CCc4nc(Cl)ccc4C3)CCN12 (stereo in doubt) [Compound 174, 2-chloro-6-[2-(6-methyloctahydro-2H-pyrido[1,2-a]pyrazin-2-yl)-2-oxoethyl]-5,6,7,8-tetrahydro-1,6-naphthyridine]",> 6.00
12,"CN(C)c1ncc2c(n1)CCN(CC(=O)N1CCN(C3CCC3)CC1)C2 [Compound 246, 6-[2-(4-cyclobutylpiperazin-1-yl)-2-oxoethyl]-N,N-dimethyl-5,6,7,8-tetrahydropyrido[4,3-d]pyrimidin-2-amine]",> 6.00
13,"O=C(CN1CCc2ncc(N3CCOCC3)nc2C1)N1CCN(C2CCC2)CC1 [Compound 241, 6-[2-(4-cyclobutylpiperazin-1-yl)-2-oxoethyl]-3-morpholin-4-yl-5,6,7,8-tetrahydropyrido[3,4-b]pyrazine]",> 6.00
14,"O=C(CN1CCc2c(cnn2-c2cncnc2)C1)N1CCN(C2CCC2)CC1 [Compound 251, 5-[2-(4-cyclobutylpiperazin-1-yl)-2-oxoethyl]-1-pyrimidin-5-yl-4,5,6,7-tetrahydro-1H-pyrazolo[4,3-c]pyridine]",> 6.00
15,"O=C(CN1CCc2cc(-c3ccc4nccn4c3)ccc2C1)N1CCN(C2CCC2)CC1 [Compound 231, 2-[2-(4-cyclobutylpiperazin-1-yl)-2-oxoethyl]-6-imidazo[1,2-a]pyridin-6-yl-1,2,3,4-tetrahydroisoquinoline]",> 6.00
16,"O=C(CN1CCc2cc(OC3CCCC3)ccc2C1)N1CCN(C2CCC2)CC1 [Compound 196, 2-[2-(4-cyclobutylpiperazin-1-yl)-2-oxoethyl]-6-(cyclopentyloxy)-1,2,3,4-tetrahydroisoquinoline]",> 6.00

# Same assay, conditions: Table II; assay of Example 7
row,Structure (SMILES),pKi
1,"Cc1nc(N2CCOCC2)nc2c1CN(CC(=O)N1CCN(C3CCC3)CC1)CC2 [Compound 692, 6-[2-(4-cyclobutylpiperazin-1-yl)-2-oxoethyl]-4-methyl-2-morpholin-4-yl-5,6,7,8-tetrahydropyrido[4,3-d]pyrimidine]",> 6.00
2,"Cc1nnc2ccc(-n3cc4c(n3)CCN(CC(=O)N3CCN(C5CCC5)CC3)C4)nn12 [Compound 689, 6-{5-[2-(4-cyclobutylpiperazin-1-yl)-2-oxoethyl]-4,5,6,7-tetrahydro-2H-pyrazolo[4,3-c]pyridin-2-y1}-3-methyl[1,2,4]triazolo [4,3-b]pyridazine]",> 6.00

# Same assay, conditions: assay of Example 7; "*" in Ki of Table II
row,Structure (SMILES),pKi
1,"Cn1cc2c(n1)CCN(CC(=O)N1CCN(C3CCC3)CC1)C2 [Compound 293, 5-[2-(4-cyclobutylpiperazin-1-yl)-2-oxoethyl]-2-methyl-4,5,6,7-tetrahydro-2H-pyrazolo[4,3-c]pyridine]",> 6.00
2,"O=C(CN1CCc2cc(-c3cncnc3)ccc2C1)N1CCN(C2CCCCC2)CC1 [Compound 393, 2-[2-(4-cyclohexylpiperazin-1-yl)-2-oxoethyl]-6-pyrimidin-5-yl-1,2,3,4-tetrahydroisoquinoline]",> 6.00
3,"CCC(C)N1CCN(C(=O)CN2CCc3cc(-c4ccc(OC)nc4)ccc3C2)CC1 (stereo not drawn) [Compound 383, 2-[2-(4-sec-butylpiperazin-1-yl)-2-oxoethyl]-6-(6-methoxypyridin-3-yl)-1,2,3,4-tetrahydroisoquinoline]",> 6.00
4,"O=C(CN1CCc2nc(-c3cc(Cl)ccc3Cl)sc2C1)N1CCN(C2CCC2)CC1 [Compound 364, 5-[2-(4-cyclobutylpiperazin-1-yl)-2-oxoethyl]-2-(2,5-dichlorophenyl)-4,5,6,7-tetrahydro[1,3]thiazolo [5,4-c]pyridine]",> 6.00
5,"CC(C)(C)c1ccc(-c2nc3c(s2)CN(CC(=O)N2CCN(C4CCC4)CC2)CC3)cc1 [Compound 314, 2-(4-tert-butylphenyl)-5-[2-(4-cyclobutylpiperazin-1-yl)-2-oxoethyl]-4,5,6,7-tetrahydro[1,3]thiazolo [5,4-c]pyridine]",> 6.00
6,"CC(C)Oc1cccc(-c2nc3c(s2)CN(CC(=O)N2CCN(C4CCC4)CC2)CC3)c1 [Compound 325, 5-[2-(4-cyclobutylpiperazin-1-yl)-2-oxoethyl]-2-(3-isopropoxyphenyl)-4,5,6,7-tetrahydro[1,3]thiazolo [5,4-c]pyridine]",> 6.00
7,"O=C(CN1CCc2cc(-c3ccc4c(c3)OCO4)ccc2C1)N1CCN(C2CCC2)CC1 [Compound 377, 6-(1,3-benzodioxol-5-yl)-2-[2-(4-cyclobutylpiperazin-1-yl)-2-oxoethyl]-1,2,3,4-tetrahydroisoquinoline]",> 6.00
8,"O=C(CN1CCc2cc(-c3ccc4c(c3)OCCO4)ccc2C1)N1CCN(C2CCCC2)CC1 [Compound 381, 2-[2-(4-cyclopentylpiperazin-1-yl)-2-oxoethyl]-6-(2,3-dihydro-1,4-benzodioxin-6-yl)-1,2,3,4-tetrahydroisoquinoline]",> 6.00
9,"CCCc1ccc(-c2nc3c(s2)CN(CC(=O)N2CCN(C4CCC4)CC2)CC3)cc1 [Compound 312, 5-[2-(4-cyclobutylpiperazin-1-yl)-2-oxoethyl]-2-(4-propylphenyl)-4,5,6,7-tetrahydro[1,3]thiazolo [5,4-c]pyridine]",> 6.00
